CC(C)(OOC(C)(C)c1ccccc1)c1ccccc1
solubility (mole fraction)
Settings	274.15 K	278.15 K	282.15 K	286.15 K	290.15 K	294.15 K	298.15 K	302.15 K
in DMF	0.152	0.196	0.246	0.305	0.365	0.44	0.518	0.619
in ethanol	0.0152	0.0188	0.0236	0.0303	0.0418	0.0573	0.0851	0.142
in isopropanol	0.0132	0.0168	0.0219	0.0291	0.0398	0.0567	0.0859	0.143
in methanol	0.00668	0.00933	0.0118	0.0154	0.02	0.0283	0.0395	0.0602
in n-butanol	0.0241	0.0317	0.0407	0.0541	0.07	0.0974	0.144	0.237
in n-propanol	0.019	0.0253	0.0317	0.0425	0.0568	0.0783	0.118	0.194
in sec-butanol	0.0161	0.0208	0.0275	0.036	0.0486	0.0724	0.107	0.183

Reference: BigSolDB 2.1
